Assay results published in PubChem BioAssay (NCI).
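Exposure lasted 48 hours, with cells grown in 96-well plates and compounds tested at five concentrations. TGI: concentration producing complete growth inhibition.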

Columns and labels:
Test in all cases: NCI-60 cell line screen, 48 h
[1] = system: NCI-H23 lung
[2] = system: A549 NSCLC
[3] = system: RXF 393 renal
[4] = system: MOLT-4 leukemia
[5] = system: M14 melanoma
[6] = system: RXF-631 renal
[7] = system: HT29 colon
[8] = system: MALME-3M melanoma
[9] = system: KM12 colon
[10] = system: NCI-H226 lung
[11] = system: SW-620 colon
[12] = system: U251 CNS
[13] = system: HCT-116 colon
[14] = system: COLO 205 colon
[15] = system: ACHN renal
[16] = system: SF-295 CNS
[17] = system: SK-MEL-28 melanoma
[18] = system: OVCAR-8 ovarian
[19] = system: K-562 leukemia
[20] = system: SK-MEL-2 melanoma
[21] = system: M19-MEL melanoma
[22] = system: KM20L2 colon
[23] = system: SN12C renal
[24] = system: HCC-2998 colon
[25] = system: HOP-92 NSCLC
[26] = system: LXFL 529 NSCLC
[27] = system: TK-10 renal
[28] = system: SNB-75 CNS
[29] = system: CCRF-CEM leukemia
[30] = system: CAKI-1 renal
[31] = system: OVCAR-3 ovarian
[32] = system: NCI-H522 lung
[33] = system: NCI-H460 lung
[34] = system: LOX IMVI melanoma
[35] = system: OVCAR-5 ovarian
[36] = system: OVCAR-4 ovarian
[37] = system: HL-60(TB) leukemia
[38] = system: UO-31 renal
[39] = system: IGROV1 ovarian
[40] = system: UACC-257 melanoma
[41] = system: EKVX NSCLC
[42] = system: UACC-62 melanoma
[43] = system: 786-0 renal
[44] = system: SNB-78 CNS
[45] = system: SK-MEL-5 melanoma
[46] = system: HCT-15 colon
[47] = system: SK-OV-3 ovarian
[48] = system: HOP-62 NSCLC
[49] = system: SF-268 CNS
[50] = system: RPMI-8226 leukemia
[51] = system: SNB-19 CNS
[52] = system: DMS 114 small cell lung
[53] = system: DMS 273 small cell lung
[54] = system: DLD-1 colon
[55] = system: SR leukemia
[56] = system: HOP-18 NSCLC
[57] = system: A498 renal
[58] = system: SF-539 CNS
[59] = system: MDA-MB-231 breast
[60] = system: XF 498 CNS
[61] = system: NCI/ADR-RES ovarian
[62] = system: DU-145 prostate
[63] = system: PC-3 prostate
[64] = system: MDA-MB-435
[65] = system: HS 578T breast
[66] = system: MCF7 breast
[67] = system: BT-549 breast
[68] = system: T-47D breast
[69] = system: MDA-N

`O=c1c2ccccc2nc2ccc3c(Cl)[nH][nH]c3c12` showed a TGI [1] greater than 100 µM, a TGI [2] greater than 100 µM and a TGI [3] greater than 100 µM. It also gave a TGI [4] greater than 79 µM, a TGI [5] greater than 100 µM and a TGI [6] greater than 100 µM. It also gave a TGI [7] greater than 100 µM, a TGI [8] of 77.3 µM and a TGI [9] greater than 100 µM. For the same compound, the TGI [10] was greater than 48.4 µM, the TGI [11] was greater than 100 µM and the TGI [12] was greater than 100 µM. It also gave a TGI [13] greater than 100 µM, a TGI [14] greater than 100 µM and a TGI [15] greater than 100 µM. For the same compound, the TGI [16] was greater than 100 µM, the TGI [17] was greater than 100 µM and the TGI [18] was greater than 100 µM. The TGI [19] was greater than 100 µM, the TGI [20] was greater than 100 µM and the TGI [21] was greater than 100 µM. The TGI [22] was greater than 100 µM, the TGI [23] was greater than 100 µM and the TGI [24] was greater than 100 µM. It also gave a TGI [25] greater than 100 µM, a TGI [26] greater than 100 µM and a TGI [27] greater than 100 µM. The TGI [28] was greater than 100 µM, the TGI [29] was greater than 100 µM and the TGI [30] was 85.3 µM. For the same compound, the TGI [31] was greater than 100 µM, the TGI [32] was greater than 83.1 µM and the TGI [33] was greater than 100 µM. For the same compound, the TGI [34] was 58.3 µM, the TGI [35] was 98 µM and the TGI [36] was greater than 100 µM. For the same compound, the TGI [37] was greater than 100 µM, the TGI [38] was greater than 92.2 µM and the TGI [39] was greater than 100 µM. It also gave a TGI [40] greater than 92.7 µM, a TGI [41] greater than 100 µM and a TGI [42] greater than 77.7 µM. The TGI [43] was greater than 100 µM, the TGI [44] was greater than 100 µM and the TGI [45] was greater than 100 µM. For the same compound, the TGI [46] was greater than 100 µM, the TGI [47] was greater than 100 µM and the TGI [48] was greater than 100 µM. For the same compound, the TGI [49] was greater than 100 µM, the TGI [50] was greater than 100 µM and the TGI [51] was greater than 100 µM. For the same compound, the TGI [52] was greater than 100 µM, the TGI [53] was greater than 100 µM and the TGI [54] was greater than 100 µM. The TGI [55] was greater than 100 µM, the TGI [56] was greater than 100 µM and the TGI [57] was greater than 100 µM.

In the case of `CC1=C(C(=O)Nc2ccccc2)C(c2ccccc2Cl)C(C(=O)Nc2ccccc2)=C(C)N1`, the TGI [1] is reported as 71.7 µM, the TGI [2] is reported as greater than 100 µM and the TGI [4] is reported as 60.1 µM. The TGI [5] was 33.3 µM, the TGI [6] was greater than 100 µM and the TGI [7] was 37.9 µM. For the same compound, the TGI [8] was 39.7 µM, the TGI [10] was 59 µM and the TGI [11] was 76.2 µM. The TGI [12] was 35.8 µM, the TGI [13] was 47.6 µM and the TGI [14] was 34.3 µM. For the same compound, the TGI [15] was 94.1 µM, the TGI [16] was 66.9 µM and the TGI [17] was 61.9 µM. It also gave a TGI [18] of 91.8 µM, a TGI [19] of 93.5 µM and a TGI [20] of 33.1 µM. It also gave a TGI [21] of 36 µM, a TGI [22] of 38.9 µM and a TGI [23] of 33 µM. The TGI [24] was 43.5 µM, the TGI [25] was 45.2 µM and the TGI [26] was 37.1 µM. The TGI [27] was greater than 100 µM, the TGI [28] was 76.4 µM and the TGI [29] was 62.1 µM. For the same compound, the TGI [30] was 57.2 µM, the TGI [31] was 40.5 µM and the TGI [32] was 35.4 µM. It also gave a TGI [34] of 33.6 µM, a TGI [35] of 61.2 µM and a TGI [36] greater than 100 µM. The TGI [37] was 31.8 µM, the TGI [38] was 84.4 µM and the TGI [39] was 65.4 µM. It also gave a TGI [40] of 38.5 µM, a TGI [41] of 37.7 µM and a TGI [42] of 27.2 µM. For the same compound, the TGI [43] was 42.1 µM, the TGI [45] was 29.8 µM and the TGI [46] was 38.5 µM. For the same compound, the TGI [47] was 80 µM, the TGI [48] was 38.5 µM and the TGI [49] was 50.5 µM. It also gave a TGI [50] of 46.9 µM, a TGI [51] of 92.7 µM and a TGI [53] of 41.9 µM. It also gave a TGI [54] greater than 100 µM, a TGI [55] of 52.6 µM and a TGI [56] of 56.5 µM. The TGI [58] was 37.6 µM and the TGI [57] was 58.5 µM.

With `O=C(NC(=O)c1c(Cl)nc2sccn12)Nc1ccc(Cl)cc1` the TGI [1] was 88.1 µM, the TGI [2] was greater than 100 µM and the TGI [3] was 76.2 µM. For the same compound, the TGI [4] was greater than 100 µM, the TGI [5] was greater than 100 µM and the TGI [6] was greater than 100 µM. For the same compound, the TGI [59] was 68.5 µM, the TGI [7] was greater than 100 µM and the TGI [60] was 42.3 µM. It also gave a TGI [8] greater than 100 µM, a TGI [61] greater than 100 µM and a TGI [9] greater than 100 µM. For the same compound, the TGI [62] was greater than 100 µM, the TGI [63] was greater than 56.2 µM and the TGI [10] was 89.7 µM. It also gave a TGI [11] greater than 100 µM, a TGI [12] of 55.9 µM and a TGI [13] greater than 100 µM. It also gave a TGI [14] greater than 100 µM, a TGI [15] greater than 100 µM and a TGI [16] of 70.2 µM. The TGI [17] was greater than 100 µM, the TGI [18] was greater than 100 µM and the TGI [19] was greater than 100 µM. It also gave a TGI [20] greater than 100 µM, a TGI [21] greater than 100 µM and a TGI [64] greater than 100 µM. The TGI [65] was 62.9 µM, the TGI [22] was greater than 100 µM and the TGI [23] was greater than 100 µM. It also gave a TGI [24] greater than 93.6 µM, a TGI [25] of 66.6 µM and a TGI [27] of 89.2 µM. It also gave a TGI [28] of 47.1 µM, a TGI [29] greater than 100 µM and a TGI [30] greater than 100 µM. The TGI [31] was greater than 100 µM, the TGI [32] was greater than 100 µM and the TGI [33] was greater than 100 µM. It also gave a TGI [34] greater than 100 µM, a TGI [35] greater than 100 µM and a TGI [66] greater than 100 µM. The TGI [36] was greater than 100 µM, the TGI [37] was greater than 100 µM and the TGI [38] was greater than 84.4 µM. The TGI [39] was greater than 100 µM, the TGI [67] was greater than 81.9 µM and the TGI [40] was greater than 100 µM. It also gave a TGI [68] greater than 100 µM, a TGI [41] greater than 100 µM and a TGI [42] greater than 100 µM. It also gave a TGI [43] greater than 90.1 µM, a TGI [44] greater than 100 µM and a TGI [45] greater than 100 µM. For the same compound, the TGI [46] was greater than 100 µM, the TGI [47] was 57.5 µM and the TGI [48] was 43.3 µM. It also gave a TGI [49] of 53.9 µM, a TGI [50] greater than 100 µM and a TGI [51] of 74.1 µM. It also gave a TGI [52] greater than 100 µM, a TGI [53] greater than 100 µM and a TGI [54] greater than 100 µM. It also gave a TGI [55] greater than 100 µM, a TGI [58] of 73.1 µM and a TGI [57] greater than 97.6 µM. For the same compound, the TGI [69] was greater than 100 µM.
